Key:
Type in all cases: in vivo, mouse
[1] = test system: heart mRNA levels (Nppa, Ctgf, mtDNA encoded genes, PPARα/RXRα target genes); experiment: RT-PCR of heart transcripts and mitochondrial RNA junctions
Method: RNA Extraction and Quantitative Real-Time Polymerase Chain Reaction (RT-PCR). Total RNA was isolated from frozen heart tissue using the RNeasy fibrous Kit (Qiagen). Total RNA was reverse-transcribed into first-strand cDNA using Iscript (Bio-rad) according to manufacturer's guidelines. Real Time PCR was performed using SYBR green (Bio-Rad). Results of mRNA levels were normalized to 18S rRNA levels and reported as fold-change over control.

cardiac mitochondria = experiment: Isolated cardiac mitochondria respiration (oxygen electrode); conditions: both genotypes
Method: Mitochondrial Isolation from cardiac tissue. Hearts were excised from mice, the aortas and atria were removed. Heart tissues were rinsed briefly in ice-cold mitochondria isolation medium (MIM) (70 mM sucrose, 220 mM mannitol, 5 mM MOPS, 1 mM EDTA, 0.025% fatty acid-free BSA, pH 7.4 with 5M KOH) to remove residual blood. Tissues were minced on ice and resuspended in fresh MIM, followed by trypsin digestion (10 ug/ml) and incubated on ice for 10 min. Trypsin digestion was stopped by the addition of trypsin inhibitor (0.5 mg/ml) and additional BSA (1 mg/ml) to MIM. The tissue pellets were resuspended in fresh MIM containing 1 mg/ml BSA, and transferred to a Teflon-glass tube and homogenized on ice with a Teflon pestle. The homogenates were centrifuged for 10 min at 800×g at 4° C. The supernatants were collected and centrifuged for 10 min at 8,000×g at 4° C. The supernatant was discarded and the mitochondrial pellets were resuspended in MIM to wash. The resuspension was centrifuged for 10 min at 8,000×g at 4° C., and the supernatant discarded. The mitochondrial pellet was resuspended to a concentrated volume for protein quantification by BCA Assay (Pierce).
Mitochondrial respirations. Isolated mitochondria respiration experiments were performed in an Clark type oxygen electrode Oxytherm System (Hansatech Instruments) at 30C. Briefly, freshly isolated mitochondria were added to respiration buffer (125 mM KCl, 20 mM HEPES, 3 mM MgCl2, 400 μM EGTA, 5 mM KH2PO4, 0.2% BSA (fatty acid free), pH 7.2) and placed in the respiration chamber to measure baseline respiration (State 1). The change in oxygen levels following the immediate addition of substrates (pyruvate/malate (5 mM/2 mM) or palmitoylcarnitine/malate (50 μM/2 mM) (State 2) followed by the sequential addition of 2.5 mM ADP (State 3), […] Oligomycin (State 4p) and 1 μM FCCP (FCCP Max). Antimycin A (2.5 μM) was added last to measure the residual oxygen consumption not accounted for by the electron transfer chain and it was subtracted from the previous measurements.

[2] = test system: retinol oxidation by SDRs; experiment: Retinoid measurements in heart tissue (LC-MS/MS); conditions: TAC hearts, WT and Sirt3Ko mice
Source text: Retinoid measurements. Analysis of all-trans-retinyl ester palmitate (RP), all-trans,-retinol (ROL) was done in collaboration with Dr. Nina Isoherranen laboratory using previously established methods (Czuba et al., 2020). RP, ROL were purchased from Toronto Research Chemicals (North York, ON), and retinyl ester palmitate-d4 (RP-d4) and all-trans-retinol-d6 (ROLd6) were purchased from Cambridge Isotopes (Andover, MA). Blank human serum (DC MASS SPECT GOLD MSG4000) for standard curve and quality control matrix was purchased from Golden West Diagnostics (Temecula, CA). Solvents for liquid chromatography tandem mass spectrometry (LC-MS/MS) were Optima LC-MS grade and purchased from Fisher Scientific (Pittsburgh, PA). […]
RP and ROL concentrations were determined on an AB Sciex 5500 QTRAP mass spectrometer (AB Sciex, Foster City), coupled with an Agilent 1290 UHPLC (Agilent, Santa Clara, CA) using a Ascentis Express RP-amide column (2.1×150 mm, […]) and guard column (2.1×5 mm, 2.7 μm). […]
RP and ROL were detected in positive ion mode atmospheric pressure chemical ionization (APCI) mode using selected reaction monitoring (SRM). […] The CE was 25 V, DP was 60 V, entrance potential was 10 V, and collision exit potential was 10 V. Peaks were integrated and quantified using MultiQuant 2.1.1 (AB Sciex, Foster City, CA). […]

## NC(=O)c1ccc[n+]([C@@H]2O[C@H](CO)[C@@H](O)[C@H]2O)c1 [NR, Nicotinamide riboside chloride]
[1]; Sirt3ko and WT TAC mice
  Atrial natriuretic peptide (Nppa) levels: decreased
  Connective growth factor (Ctgf) levels: decreased
[1]; TAC hearts, Sirt3Ko and WT
  Expression of mtDNA encoded genes (mt-Nd1, mt-Cox1 and mt-Cytb): improved
  Expression of nuclear DNA encoded ETC genes: not changed
[1]; failing (TAC) hearts
  Expression of PPARα target genes (Acadm, Ucp2, Ucp3, Octn2, Cpt1b): increased
[1]; failing hearts of WT and Sirt3Ko mice
  Accumulation of mitochondrial RNA precursor fragments (Nd1-Nd2, Cox1-Cox2 junctions): removed the accumulation of RNA precursor fragments
Cardiac mitochondria; TAC, Complex I substrates
  Mitochondrial respiratory function (State 3 respiration): improved
Cardiac mitochondria; cardiac mitochondria from ISO treated hearts, NR
  Palmitoylcarnitine (PLC) supported State 3 respiration (ADP stimulated): restored
[2]
  Retinol and retinylpalmitate accumulation (bottleneck in SDR reactions): removed the “bottleneck”
